Assay results as given in US20260078120A1, “SUBSTITUTED PYRIDOPYRIMIDINONES” (MIRATI THERAPEUTICS, INC., priority 2022, published 2026).
pIC50: −log10 of the molar value.

What was measured:
[1] = system: T47D (PI3Kα H1047R mutant) cells; assay: CellTiter-Glo 2.0 luminescent cell viability assay, 72 hours, T47D cells; assay type: cell-based; conditions: Homo sapiens, T47D, 72 h, T47D (PI3Kα H1047R mutant) cells, CellTiter-Glo, approximately 72 hours; read-out: T47D (H1047R mutant) Viability IC50
Outline: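 Viability was measured by CellTiter-Glo 2.0 luminescence after approximately 72 h of compound exposure at 37° C. Plating was 1000 cells per well the day before dosing, with ten 1:4 dilutions from a 10 µM top concentration. Values as percent of vehicle were fitted by variable-slope log(inhibitor) regression to give IC50.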

[2] = system: SKBR3 (PI3Kα wild type) cells; assay: CellTiter-Glo 2.0 luminescent cell viability assay, 72 hours, SKBR3 cells; assay type: cell-based; conditions: Homo sapiens, SK-BR-3, 72 h, SKBR3 (PI3Kα wild type) cells, CellTiter-Glo, approximately 72 hours; read-out: SKBR3 (WT) Viability IC50
Outline: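 Viability measured via CTG luminescence following roughly 72 hours of compound exposure at 37° C. Dosing used a 10 um starting concentration diluted 1:4 over 10 points; percent-of-vehicle data fitted with a variable-slope four-parameter model for IC50.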

With `Cc1cc([C@@H](C)Nc2ccccc2C(=O)O)c2nc(N3CC[C@@H]3C(F)(F)F)c(C)c(=O)n2c1` [Example 11-98, 2-(((R)-1-(3,7-dimethyl-4-oxo-2-((R)-2-(trifluoromethyl)azetidin-1-yl)-4H-pyrido[1,2-a]pyrimidin-9-yl)ethyl)amino)benzoic acid] as the molecule, how does the pIC50 [1] read?
The pIC50 was 6.33.

What about the pIC50 [2] of the same molecule?
The pIC50 was under 5.00.

With `Cc1cc([C@@H](C)Nc2ccccc2C(=O)O)c2nc(NC3CCC3)c(C)c(=O)n2c1` [Example 11-99, (R)-2-((1-(2-(cyclobutylamino)-3,7-dimethyl-4-oxo-4H-pyrido[1,2-a]pyrimidin-9-yl)ethyl)amino)benzoic acid] as the molecule, how does the pIC50 [1] read?
The pIC50 was 6.19.

What about the pIC50 [2] of the same molecule?
Its pIC50 is under 5.00.

`Cc1cc([C@@H](C)Nc2ccccc2C(=O)O)c2nc(N3CC[C@H]3C)c(C)c(=O)n2c1` [Example 11-100, 2-(((R)-1-(3,7-dimethyl-2-((R)-2-methylazetidin-1-yl)-4-oxo-4H-pyrido[1,2-a]pyrimidin-9-yl)ethyl)amino)benzoic acid] was tested. Which pIC50 [1] did it give?
Its pIC50 is 6.65.

What about the pIC50 [2] of the same molecule?
Its pIC50 is under 5.00.

How did the pIC50 [1] turn out when `Cc1cc([C@@H](C)Nc2ccccc2C(=O)O)c2nc(N3CC[C@@H]3C)c(C)c(=O)n2c1` [Example 11-101, 2-(((R)-1-(3,7-dimethyl-2-((S)-2-methylazetidin-1-yl)-4-oxo-4H-pyrido[1,2-a]pyrimidin-9-yl)ethyl)amino)benzoic acid] was run?
Its pIC50 is 6.74.

And the pIC50 [2]?
Its pIC50 is under 5.00.

`Cc1cc([C@@H](C)Nc2ccccc2C(=O)O)c2nc(N3CC4(C3)CC4(F)F)c(C#N)c(=O)n2c1` [Example 11-102, (R)-2-((1-(3-cyano-2-(1,1-difluoro-5-azaspiro[2.3]hexan-5-yl)-7-methyl-4-oxo-4H-pyrido[1,2-a]pyrimidin-9-yl)ethyl)amino)benzoic acid] was tested. Which pIC50 [1] did it give?
Its pIC50 is 6.89.

What about the pIC50 [2] of the same molecule?
The pIC50 was under 5.00.

`Cc1cc([C@@H](C)Nc2ccccc2C(=O)O)c2nc(N3CC4(C3)CC4(F)F)c(C)c(=O)n2c1` [Example 11-103, (R)-2-((1-(2-(1,1-difluoro-5-azaspiro[2.3]hexan-5-yl)-3,7-dimethyl-4-oxo-4H-pyrido[1,2-a]pyrimidin-9-yl)ethyl)amino)benzoic acid] was tested. Which pIC50 [1] did it give?
Its pIC50 is 6.32.

What about the pIC50 [2] of the same molecule?
Its pIC50 is under 5.00.

Which results are given for `Cc1cc([C@@H](C)Nc2ccccc2C(=O)O)c2nc(N3CC(C(F)F)C3)c(C#N)c(=O)n2c1` [Example 11-104, (R)-2-((1-(3-cyano-2-(3-(difluoromethyl)azetidin-1-yl)-7-methyl-4-oxo-4H-pyrido[1,2-a]pyrimidin-9-yl)ethyl)amino)benzoic acid]?
pIC50 [1]: 6.51; pIC50 [2]: < 5.00

How did the pIC50 [1] turn out when `Cc1cc([C@@H](C)Nc2ccccc2C(=O)O)c2nc(N3CC(C(F)F)C3)c(C)c(=O)n2c1` [Example 11-105, (R)-2-((1-(2-(3-(difluoromethyl)azetidin-1-yl)-3,7-dimethyl-4-oxo-4H-pyrido[1,2-a]pyrimidin-9-yl)ethyl)amino)benzoic acid] was run?
Its pIC50 is 6.59.

What about the pIC50 [2] of the same molecule?
The pIC50 was under 5.00.

How did the pIC50 [1] turn out when `Cc1cc([C@@H](C)Nc2ccccc2C(=O)O)c2nc(N3CC(C(F)(F)F)C3)c(C#N)c(=O)n2c1` [Example 11-106, (R)-2-((1-(3-cyano-7-methyl-4-oxo-2-(3-(trifluoromethyl)azetidin-1-yl)-4H-pyrido[1,2-a]pyrimidin-9-yl)ethyl)amino)benzoic acid] was run?
The pIC50 was 6.93.

And the pIC50 [2]?
Its pIC50 is under 5.00.

With `Cc1cc([C@@H](C)Nc2ccccc2C(=O)O)c2nc(N3CC(C(F)(F)F)C3)c(C)c(=O)n2c1` [Example 11-107, (R)-2-((1-(3,7-dimethyl-4-oxo-2-(3-(trifluoromethyl)azetidin-1-yl)-4H-pyrido[1,2-a]pyrimidin-9-yl)ethyl)amino)benzoic acid] as the molecule, how does the pIC50 [1] read?
Its pIC50 is 6.86.

And the pIC50 [2]?
Its pIC50 is under 5.00.

How did the pIC50 [1] turn out when `C=C(C#N)CNc1nc2c([C@@H](C)Nc3ccccc3C(=O)O)cc(C)cn2c(=O)c1C#N` [Example 11-108, (R)-2-((1-(3-cyano-2-((2-cyanoallyl)amino)-7-methyl-4-oxo-4H-pyrido[1,2-a]pyrimidin-9-yl)ethyl)amino)benzoic acid] was run?
Its pIC50 is 5.43.

What about the pIC50 [2] of the same molecule?
Its pIC50 is under 5.00.

How did the pIC50 [1] turn out when `Cc1cc([C@@H](C)Nc2ccccc2C(=O)O)c2nc(N3CC(C#N)C3)c(C#N)c(=O)n2c1` [Example 11-109, (R)-2-((1-(3-cyano-2-(3-cyanoazetidin-1-yl)-7-methyl-4-oxo-4H-pyrido[1,2-a]pyrimidin-9-yl)ethyl)amino)benzoic acid] was run?
Its pIC50 is 5.88.

And the pIC50 [2]?
Its pIC50 is under 5.00.

With `C=C(C#N)CNc1nc2c([C@@H](C)Nc3ccccc3C(=O)O)cc(C)cn2c(=O)c1C` [Example 11-110, (R)-2-((1-(2-((2-cyanoallyl)amino)-3,7-dimethyl-4-oxo-4H-pyrido[1,2-a]pyrimidin-9-yl)ethyl)amino)benzoic acid] as the molecule, how does the pIC50 [1] read?
Its pIC50 is 5.31.

And the pIC50 [2]?
Its pIC50 is under 5.00.

What does the source list for `COC1CN(c2nc3c([C@@H](C)Nc4ccccc4C(=O)O)cc(C)cn3c(=O)c2C#N)C1` [Example 11-111, (R)-2-((1-(3-cyano-2-(3-methoxyazetidin-1-yl)-7-methyl-4-oxo-4H-pyrido[1,2-a]pyrimidin-9-yl)ethyl)amino)benzoic acid]?
pIC50 [1]: 6.55; pIC50 [2]: < 5.00

With `COC1CN(c2nc3c([C@@H](C)Nc4ccccc4C(=O)O)cc(C)cn3c(=O)c2C)C1` [Example 11-112, (R)-2-((1-(2-(3-methoxyazetidin-1-yl)-3,7-dimethyl-4-oxo-4H-pyrido[1,2-a]pyrimidin-9-yl)ethyl)amino)benzoic acid] as the molecule, how does the pIC50 [1] read?
The pIC50 was 6.73.

What about the pIC50 [2] of the same molecule?
Its pIC50 is under 5.00.

Which results are given for `Cc1cc([C@@H](C)Nc2ccccc2C(=O)O)c2nc(N3CC(F)C3)c(C#N)c(=O)n2c1` [Example 11-113, (R)-2-((1-(3-cyano-2-(3-fluoroazetidin-1-yl)-7-methyl-4-oxo-4H-pyrido[1,2-a]pyrimidin-9-yl)ethyl)amino)benzoic acid]?
pIC50 [1]: 6.60; pIC50 [2]: < 5.00

What does the source list for `Cc1cc([C@@H](C)Nc2ccccc2C(=O)O)c2nc(N3CC(F)C3)c(C)c(=O)n2c1` [Example 11-114, (R)-2-((1-(2-(3-fluoroazetidin-1-yl)-3,7-dimethyl-4-oxo-4H-pyrido[1,2-a]pyrimidin-9-yl)ethyl)amino)benzoic acid]?
pIC50 [1]: 6.59; pIC50 [2]: < 5.00

How did the pIC50 [1] turn out when `Cc1cc([C@@H](C)Nc2ccccc2C(=O)O)c2nc(N3CC(F)(F)C3)c(C)c(=O)n2c1` [Example 11-115, (R)-2-((1-(2-(3,3-difluoroazetidin-1-yl)-3,7-dimethyl-4-oxo-4H-pyrido[1,2-a]pyrimidin-9-yl)ethyl)amino)benzoic acid] was run?
The pIC50 was 6.42.

What about the pIC50 [2] of the same molecule?
Its pIC50 is under 5.00.

`CO[C@H]1CN(c2nc3c([C@@H](C)Nc4ccccc4C(=O)O)cc(C)cn3c(=O)c2C#N)CC1(F)F` [Example 11-116, 2-(((R)-1-(3-cyano-2-((S)-3,3-difluoro-4-methoxypyrrolidin-1-yl)-7-methyl-4-oxo-4H-pyrido[1,2-a]pyrimidin-9-yl)ethyl)amino)benzoic acid] was tested. Which pIC50 [1] did it give?
The pIC50 was 6.81.

And the pIC50 [2]?
The pIC50 was under 5.00.

How did the pIC50 [1] turn out when `CO[C@@H]1CN(c2nc3c([C@@H](C)Nc4ccccc4C(=O)O)cc(C)cn3c(=O)c2C)CC1(F)F` [Example 11-117, 2-(((R)-1-(2-((R)-3,3-difluoro-4-methoxypyrrolidin-1-yl)-3,7-dimethyl-4-oxo-4H-pyrido[1,2-a]pyrimidin-9-yl)ethyl)amino)benzoic acid] was run?
Its pIC50 is 6.46.

What about the pIC50 [2] of the same molecule?
Its pIC50 is under 5.00.

How did the pIC50 [1] turn out when `CO[C@H]1CN(c2nc3c([C@@H](C)Nc4ccccc4C(=O)O)cc(C)cn3c(=O)c2C)CC1(F)F` [Example 11-118, 2-(((R)-1-(2-((S)-3,3-difluoro-4-methoxypyrrolidin-1-yl)-3,7-dimethyl-4-oxo-4H-pyrido[1,2-a]pyrimidin-9-yl)ethyl)amino)benzoic acid] was run?
The pIC50 was 6.63.

And the pIC50 [2]?
Its pIC50 is under 5.00.
